Experimental data as given in the NIST ThermoML archive (doi:10.1016/j.jct.2013.11.005).
± gives the expanded uncertainty stated by the source.

Settings: for viscosity / mass density: 101.33 kPa, Liquid; for viscosity: Falling or rolling sphere viscometry; for mass density: Vibrating tube method; for surface tension liquid-gas: Pendant drop shape

viscosity (293.15 K) | mass density (293.15 K) | surface tension liquid-gas (298.15 K) | viscosity (298.15 K) | mass density (298.15 K) | surface tension liquid-gas (303.15 K) | viscosity (303.15 K) | mass density (303.15 K) | surface tension liquid-gas (313.15 K) | viscosity (313.15 K) | mass density (313.15 K) | surface tension liquid-gas (323.15 K) | viscosity (323.15 K) | mass density (323.15 K) | viscosity (333.15 K) | mass density (333.15 K) | viscosity (343.15 K) | mass density (343.15 K) | viscosity (353.15 K) | mass density (353.15 K) | Compound
76.08 ± 2 mPa·s | 1073.99 ± 0.99 kg/m3 | 47 ± 0.7 mN/m | 59.81 ± 1.4 mPa·s | 1071.04 ± 0.98 kg/m3 | 46.6 ± 0.7 mN/m | 47.84 ± 1.1 mPa·s | 1068.08 ± 0.98 kg/m3 | 45.7 ± 0.7 mN/m | 32.2 ± 0.77 mPa·s | 1062.21 ± 0.97 kg/m3 | 44.8 ± 0.7 mN/m | 22.97 ± 0.54 mPa·s | 1056.39 ± 0.95 kg/m3 | 17.12 ± 0.4 mPa·s | 1050.61 ± 0.94 kg/m3 | 13.2 ± 0.31 mPa·s | 1044.87 ± 0.93 kg/m3 | 10.5 ± 0.25 mPa·s | 1039.17 ± 0.92 kg/m3 | CCCCn1cc[n+](C)c1.N#C[S-] [1-butyl-3-methylimidazolium thiocyanate]
28.27 ± 0.67 mPa·s | 1120.02 ± 1.1 kg/m3 | 54.1 ± 0.8 mN/m | 23.79 ± 0.56 mPa·s | 1116.97 ± 1.1 kg/m3 | 53.6 ± 0.8 mN/m | 20.25 ± 0.48 mPa·s | 1113.91 ± 1.1 kg/m3 | 52.9 ± 0.8 mN/m | 15.13 ± 0.36 mPa·s | 1107.95 ± 1.1 kg/m3 | 52.1 ± 0.8 mN/m | 11.73 ± 0.28 mPa·s | 1101.84 ± 1.1 kg/m3 | 9.36 ± 0.22 mPa·s | 1095.89 ± 1 kg/m3 | 7.65 ± 0.18 mPa·s | 1089.98 ± 1 kg/m3 | 6.38 ± 0.15 mPa·s | 1084.12 ± 1 kg/m3 | CCn1cc[n+](C)c1.N#C[S-] [1-ethyl-3-methylimidazolium thiocyanate]
